Measurements published in patent US5077204A, “Yeast endopeptidase for basic amino-acid site cleavage, preparation and use” (Chiron Corporation, priority 1988, dated 1991).
Peptide text beside a SMILES is read from it. * marks the point of attachment. AMC = Cc1cc(=O)oc2cc(N*)ccc12; βNA = c1ccc2cc(N*)ccc2c1; Cbz = O=C(OCc1ccccc1)*; Boc = CC(C)(C)OC(=O)*

Experiments:
Assay type in all cases: biochemical, S. cerevisiae
[1] = target: T1, KEX2 endopeptidase (Brij 58-permeabilized kex2 cells carrying pJ2B) (Saccharomyces cerevisiae, UniProt P13134); test: Peptidase activity in detergent-permeabilized kex2 cells carrying pJ2B; details: for Rate of hydrolysis, kex2 cells carrying pJ2B versus kex2 cells harboring the vector alone: detergent-permeabilized cells; for Rate of hydrolysis relative to the lysine-containing substrate (Boc-GluLysLys-MCA), times faster: detergent-permeabilized kex2 cells carrying pJ2B
T1 construct: not only includes the KEX2 gene, but also the necessary transcriptional and translational regulatory signals for expression in yeast; expressed in transfected cells; host or cells: S. cerevisiae XBH16-15A (MATalpha kex2-1) carrying YEp24-pJ2B
Procedure: (§1) Permeabilization of whole yeast cells with the non-ionic detergent Brij 58, preparation of crude membrane fractions, and measurement of protein concentration were conducted by the methods described previously (Julius et al., 1983, supra), incorporated herein by reference. To measure peptidase activity, samples of permeabilized cells or membrane material were added to a reaction mixture containing 0.1-0.5 mM fluorogenic peptide substrate (added from a 20 mM stock dissolved in DMSO) and 200 mM HEPES-Tris (pH 7.0), in a final volume of 0.4 ml. Following incubation for 30 min at 37° C., whole cells were removed by centrifugation in a microfuge (Eppendorf) and membrane material was removed by Ba(OH)2 -ZnSO4 precipitation. The amount of fluorescence formed in the supernatant solution was determined in a fluorescence spectrophotometer (Perkin-Elmer, Model MPF-44B), set either at an excitation wavelength of 335 nm and an emission wavelength of 410 nm (for measurement of β-naphthylamine) or at an excitation wavelength of 380 nm and an emission wavelength of 460 nm (for measurement of 7-amino-4-methyl-coumarin, AMC). To determine the number of moles of substrate hydrolyzed, the fluorescence yield of samples was compared to a standard curve prepared with known concentrations of authentic AMC dissolved in the same buffer.

[2] = target: T2, KEX2 endopeptidase (kex2::pJ2B membranes) (Saccharomyces cerevisiae, UniProt P13134); test: Endopeptidase activity in membranes from kex2 cells containing pJ2B in integrated form; details: for Relative Ratio: kex2::pJ2B relative to kex2[YEp24] = [1.0]
T2 construct: not only includes the KEX2 gene, but also the necessary transcriptional and translational regulatory signals for expression in yeast; expressed in transfected cells; host or cells: S. cerevisiae XBH16-15A (MATalpha kex2-1) containing pJ2B in integrated form; crude membranes
Procedure: as §1
(§2) Cells of strain XBH1615A that had been transformed with the plasmids
(§3) indicated, or that contained pJ2B in integrated form, were grown in SCUra
(§4) and membranes were prepared as described in the Experimental.
(§5) Endopeptidase activity was assayed as described in the Experimental. All
(§6) substrates tested were present at 0.1 mM.
(§7) Endopeptidase activity was assayed using Boc--GlnArgArg--MCA as the
(§8) substrate, as outlined in the Experimental. All inhibitors were added fro
(§9) a 0.1 M stock dissolved in dimethyl sulfoxide. All values given were
(§10) corrected for the slight effects of addition of this solvent alone.

[3] = target: T3, KEX2 endopeptidase (kex2[YEp24-pJ2B] membranes) (Saccharomyces cerevisiae, UniProt P13134); test: Endopeptidase activity in membranes from kex2 cells carrying multicopy plasmid pJ2B (over-produced specific endopeptidase); details: for Relative Ratio: kex2[YEp24-pJ2B] relative to kex2[YEp24] = [1.0]; for Rate of hydrolysis, membranes from kex2 cells carrying pJ2B versus membranes from kex2 cells carrying YEp24: membrane fractions, depending on the experiment; for Susceptibility of the specific KEX2 endopeptidase to inhibition or inactivation: kex2 cells transformed with plasmid pJ2B, comparisons are to the background activity
T3 construct: not only includes the KEX2 gene, but also the necessary transcriptional and translational regulatory signals for expression in yeast; expressed in transfected cells; host or cells: S. cerevisiae XBH16-15A (MATalpha kex2-1) carrying YEp24-pJ2B
T3 sequence (P13134 114-814): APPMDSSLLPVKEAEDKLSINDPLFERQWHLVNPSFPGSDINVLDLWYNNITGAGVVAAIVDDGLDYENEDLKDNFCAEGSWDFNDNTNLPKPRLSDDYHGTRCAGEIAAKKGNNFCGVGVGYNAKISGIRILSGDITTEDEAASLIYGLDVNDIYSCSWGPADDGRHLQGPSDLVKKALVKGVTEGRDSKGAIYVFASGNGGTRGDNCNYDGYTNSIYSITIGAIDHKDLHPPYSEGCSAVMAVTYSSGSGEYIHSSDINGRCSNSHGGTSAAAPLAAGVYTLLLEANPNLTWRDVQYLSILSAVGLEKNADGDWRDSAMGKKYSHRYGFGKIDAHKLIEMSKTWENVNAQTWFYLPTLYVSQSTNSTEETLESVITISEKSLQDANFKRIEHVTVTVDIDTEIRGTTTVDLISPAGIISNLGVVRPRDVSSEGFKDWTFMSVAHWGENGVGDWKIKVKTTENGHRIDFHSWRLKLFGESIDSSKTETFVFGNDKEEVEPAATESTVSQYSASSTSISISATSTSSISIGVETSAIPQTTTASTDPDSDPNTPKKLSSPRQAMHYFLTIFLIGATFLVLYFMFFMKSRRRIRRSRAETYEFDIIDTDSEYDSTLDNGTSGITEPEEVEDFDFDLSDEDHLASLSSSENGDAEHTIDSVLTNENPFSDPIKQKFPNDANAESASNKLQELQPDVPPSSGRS
Procedure: as §1, §2, §3, §4, §5, §6, §7, §8
a 0.1 M stock dissolved in dimethyl sulfoxide.

[4] = test system: background activity in membranes of kex2[YEp24] cells; test: Endopeptidase activity in membranes from kex2 cells transformed with the vector YEp24 alone (background activity); details: for Susceptibility of the background activity to inhibition: kex2 cells transformed with YEp24 alone
Procedure: as §1, §2, §3, §4, §5, §6, §7, §8, §9, §10

[5] = target: T4, KEX2 endopeptidase (lysate of XBH16-15A carrying YEp24-pJ2B) (Saccharomyces cerevisiae, UniProt P13134); test: Release of endopeptidase activity from membranes by detergent treatment
T4 construct: not only includes the KEX2 gene, but also the necessary transcriptional and translational regulatory signals for expression in yeast; expressed in transfected cells; host or cells: S. cerevisiae XBH16-15A (MATalpha kex2-1) carrying YEp24-pJ2B
Procedure: as §1
Strain XBH1615A carrying the KEX2 gene on a multicopy plasmid (YEp24pJ2B)
was grown to midexponential phase in SCUra. The cells were collected by
centrifugation and a lysate was prepared as described in the Experimental
The lysate was divided into two equal portions, one of which was treated
with the nonionic detergent Triton X100 at a final concentration of 1%.
Samples of both the original lysate and the detergenttreated lysate were
saved and the remainder of each was separated into a crude membrane
fraction (P100) and a soluble fraction (S100) by centrifugation at 100,00
× g for 1 hr for endopeptidase activity using
Boc--GlnArgArg--MCA as the substrate, as given in the Experimental.

[6] = strain kex2::pJ2B, substrate 0.1 mM, membranes
[7] = strain kex2[YEp24-pJ2B], substrate 0.1 mM, membranes
[8] = strain kex2[YEp24], substrate 0.1 mM, membranes
[9] = kex2::pJ2B, inhibitor 1 mM, substrate Boc-GlnArgArg-MCA
[10] = kex2::pJ2B, inhibitor 5 mM, substrate Boc-GlnArgArg-MCA
[11] = kex2[YEp24-pJ2B], inhibitor 1 mM, substrate Boc-GlnArgArg-MCA
[12] = kex2[YEp24-pJ2B], inhibitor 5 mM, substrate Boc-GlnArgArg-MCA
[13] = kex2[YEp24], inhibitor 1 mM, substrate Boc-GlnArgArg-MCA
[14] = kex2[YEp24], inhibitor 5 mM, substrate Boc-GlnArgArg-MCA
[15] = +1% Triton X-100, P100 crude membrane fraction
[16] = +1% Triton X-100, S100 soluble fraction
[17] = kex2::pJ2B, Triton X-100 1% + 5 mM TPCK, substrate Boc-GlnArgArg-MCA
[18] = kex2::pJ2B, Triton X-100 1%, substrate Boc-GlnArgArg-MCA
[19] = kex2[YEp24-pJ2B], Triton X-100 1% + 5 mM TPCK, substrate Boc-GlnArgArg-MCA
[20] = kex2[YEp24-pJ2B], Triton X-100 1%, substrate Boc-GlnArgArg-MCA
[21] = kex2[YEp24], Triton X-100 1% + 5 mM TPCK, substrate Boc-GlnArgArg-MCA
[22] = kex2[YEp24], Triton X-100 1%, substrate Boc-GlnArgArg-MCA

Molecule: C[C@H](NC(=O)OCc1ccccc1)C(=O)N[C@@H](CCCNC(=N)N)C(=O)N[C@@H](CCCNC(=N)N)C(=O)Nc1ccc2ccccc2c1 [CBZ-AlaArgArg-β-naphthylamide] (Cbz-Ala-Arg-Arg-βNA)
- Rate of hydrolysis, kex2 cells carrying pJ2B versus kex2 cells harboring the vector alone [1]: six- to ninefold greater
- Rate of hydrolysis relative to the lysine-containing substrate (Boc-GluLysLys-MCA), times faster [1]: ~30 times

Molecule: Cc1cc(=O)oc2cc(NC(=O)[C@H](CCCCN)NC(=O)[C@H](CCCCN)NC(=O)[C@H](CCC(=O)O)NC(=O)OC(C)(C)C)ccc12 [Boc--GluLysLys--MCA, Boc-GluLysLys-MCA] (Boc-Glu-Lys-Lys-{AMC})
- Rate of hydrolysis, kex2 cells carrying pJ2B versus kex2 cells harboring the vector alone [1]: six- to ninefold greater
- Relative Ratio ([2]; substrate 0.1 mM): 1.7
- Specific Activity [2, 6]: 0.5 pmoles AMC formed/μg protein 10
- Relative Ratio ([3]; substrate 0.1 mM): 6.3
- Rate of hydrolysis relative to Boc-GlnArgArg-MCA, times more slowly ([3]; membrane fractions of kex2 cells carrying pJ2B): about 50 times
- Rate of hydrolysis, membranes from kex2 cells carrying pJ2B versus membranes from kex2 cells carrying YEp24 [3]: about six-fold
- Specific Activity [3, 7]: 1.9 pmoles AMC formed/μg protein 10
- Specific Activity [4, 8]: 0.3 pmoles AMC formed/μg protein 10

Molecule: Cc1cc(=O)oc2cc(NC(=O)[C@H](CCCNC(=N)N)NC(=O)[C@H](CCCNC(=N)N)NC(=O)[C@H](CCC(N)=O)NC(=O)OC(C)(C)C)ccc12 [Boc--GlnArgArg--MCA, Boc-GlnArgArg-7-amino-4-methyl-coumarin] (Boc-Gln-Arg-Arg-{AMC})
- Rate of hydrolysis, kex2 cells carrying pJ2B versus kex2 cells harboring the vector alone [1]: six- to ninefold greater
- Rate of hydrolysis relative to the lysine-containing substrate (Boc-GluLysLys-MCA), times faster [1]: ~30 times
- Relative Ratio ([2]; substrate 0.1 mM): 3.3
- Specific Activity [2, 6]: 16.7 pmoles AMC formed/μg protein 10
- Relative Ratio ([3]; substrate 0.1 mM): 20.2
- Rate of hydrolysis, membranes from kex2 cells carrying pJ2B versus membranes from kex2 cells carrying YEp24 [3]: 20- to 35 fold
- Specific Activity [3, 7]: 100.8 pmoles AMC formed/μg protein 10
- Specific Activity [4, 8]: 5.0 pmoles AMC formed/μg protein 10

Molecule: O=S(=O)(F)Cc1ccccc1 [PMSF, phenylmethylsulfonyl fluoride]
- Inhibition [2, 9]: 17%
- Specific Activity [2, 9]: 14.4 pmoles/μg/10 min
- Inhibition [2, 10]: 16%
- Specific Activity [2, 10]: 14.7 pmoles/μg/10 min
- Inhibition [3, 11]: 0%
- Specific Activity [3, 11]: 116.7 pmoles/μg/10 min
- Inhibition [3, 12]: 0%
- Specific Activity [3, 12]: 110.2 pmoles/μg/10 min
- Susceptibility of the specific KEX2 endopeptidase to inhibition or inactivation [3]: completely resistant
- Inhibition [4, 13]: 45%
- Specific Activity [4, 13]: 2.8 pmoles/μg/10 min
- Inhibition [4, 14]: 71%
- Specific Activity [4, 14]: 1.5 pmoles/μg/10 min
- Susceptibility of the background activity to inhibition [4]: sensitive to inhibition

Molecule: Cc1ccc(S(=O)(=O)NC(CCCCN)C(=O)CCl)cc1 (stereo not drawn) [TLCK, tosyl-lysine-chloromethylketone]
- inhibition at 1000 µM [2]: 16%
- inhibition at 5000 µM [2]: 17%
- Specific Activity [2, 9]: 14.6 pmoles/μg/10 min
- Specific Activity [2, 10]: 14.5 pmoles/μg/10 min
- Specific Activity [3, 11]: 100.8 pmoles/μg/10 min
- inhibition at 1000 µM [3, 11]: 7%
- Specific Activity [3, 12]: 95.5 pmoles/μg/10 min
- inhibition at 5000 µM [3, 12]: 12%
- Susceptibility of the specific KEX2 endopeptidase to inhibition or inactivation [3]: completely resistant
- Inhibition [4, 13]: 55%
- Specific Activity [4, 13]: 2.3 pmoles/μg/10 min
- Inhibition [4, 14]: 65%
- Specific Activity [4, 14]: 1.8 pmoles/μg/10 min
- Susceptibility of the background activity to inhibition [4]: sensitive to inhibition

Molecule: Triton X-100
- % of Recovery ([5]; +1% Triton X-100, P100 + S100): 94%
- % of Total [5, 15]: 19%
- Specific Activity [5, 15]: 50.0 pmoles/μg/10 min
- % of Total [5, 16]: 75%
- Specific Activity [5, 16]: 200.0 pmoles/μg/10 min
- Specific Activity ([5]; +1% Triton X-100, whole lysate, substrate Boc-GlnArgArg-MCA): 265.0 pmoles/μg/10 min
- Solubilization of the specific KEX2 endopeptidase from membranes ([5]; Triton X-100 at final concentration of 1%): readily solubilized from membranes
- Relative Ratio ([2]; Triton X-100 1% + 5 mM TPCK): 9.4
- Inhibition [2, 17]: 34%
- Specific Activity [2, 17]: 11.4 pmoles/μg/10 min
- Inhibition [2, 18]: 26%
- Specific Activity [2, 18]: 12.9 pmoles/μg/10 min
- Relative Ratio ([3]; Triton X-100 1% + 5 mM TPCK): 127.4
- Inhibition [3, 19]: 0%
- Specific Activity [3, 19]: 152.9 pmoles/μg/10 min
- Inhibition [3, 20]: 0%
- Specific Activity [3, 20]: 155.0 pmoles/μg/10 min
- Susceptibility of the specific KEX2 endopeptidase to inhibition or inactivation [3]: slightly activated
- Inhibition [4, 21]: 76%
- Specific Activity [4, 21]: 1.2 pmoles/μg/10 min
- Inhibition [4, 22]: 71%
- Specific Activity [4, 22]: 1.5 pmoles/μg/10 min
- Susceptibility of the background activity to inhibition [4]: greatly reduced
